From patent US9023817B2, “Use of albiflorin for anti-depression” (priority 2009, dated 2015)
Where a name gives a salt, the structure may show the parent alone. Marks after values point to notes of the source that are not given here.

What was measured:
[1] = tested on: rats with chronic stress induced depression model; assay: Jump stair test, chronic stress induced depression; type: in vivo, SD rats; conditions: 3 mg/kg/day gavage for 21 days, 5 minutes, Hydrochloride; for Error times in testing period: after 24 hours
Protocol: The gavage was carried out along with the model establishment, once a day, for 21 days. […] Referring to the methods in the literature (Xu Jing, Li Xiaoqiu, Establishment and evaluation of the model of chronic stress induced depression, Chinese Journal of Behavioral Medical Science, 2003, 12(1): 14 16), the model was established (i.e., establishing animal model of anti-depression by means of CUMS): the foot electric shock (voltage: […] (5 minutes), drying at 45° C. (5 minutes), tail nipping (1 min), wet feeding (wet mat), reversed day and night (24 hours), fasting (24 hours), water deprivation (24 hours) were randomly scheduled within 21 days, one kind of stimulations was given for each day, except for the animals of vehicle group, the others were separately caged with free diet, at the room temperature of (24±1)° C., with the relative humidity of (60±10)%. […] A wooden platform (height: 5 cm, diameter: 8 cm) was placed into the box at the left back corner. Animals were placed into the response box to adapt to the environment for 3 minutes, and then the box was immediately electrified with […] alternating current, the normal response of the animal which suffered from electric shock was to jump onto the platform in order to avoid such harmful stimulation. Most animals were likely to jump down to the copper railings again or for several times, and then quickly jump back to the platform after suffering from the electric shock, being trained like this for 5 minutes, the times that the rats suffered from the electric shock were designated as error times. The test was carried out again after 24 hours, rats were placed on the platform and the box was charged, timing and recording the error times for 5 minutes. All parameters to be tested were expressed as Mean±SD (X±s), and tested by means of analysis of variance (ANOVA) in SPSS 12.0 software (purchased from SPSS Inc., USA), p<0.05 means that there was a significant difference.

[2] = tested on: rats with chronic stress induced depression model; assay: Consumption of 1% aqueous sucrose, chronic stress induced depression; type: in vivo, SD rats; conditions: 3 mg/kg/day gavage, 1% aqueous sucrose for 1 hour
Protocol: The gavage was carried out along with the model establishment, once a day, for 21 days. […] Referring to the methods in the literature (Xu Jing, Li Xiaoqiu, Establishment and evaluation of the model of chronic stress induced depression, Chinese Journal of Behavioral Medical Science, 2003, 12(1): 14 16), the model was established (i.e., establishing animal model of anti-depression by means of CUMS): the foot electric shock (voltage: […] (5 minutes), drying at 45° C. […] All parameters to be tested were expressed as Mean±SD (X±s), and tested by means of analysis of variance (ANOVA) in SPSS 12.0 software (purchased from SPSS Inc., USA), p<0.05 means that there was a significant difference.

[3] = tested on: rats with chronic stress induced depression model; assay: Body weights of rats with chronic stress induced depression (CUMS); type: in vivo, SD rats; conditions: 3 mg/kg/day gavage
Protocol: (§1) The gavage was carried out along with the model establishment, once a day, for 21 days. […] Referring to the methods in the literature (Xu Jing, Li Xiaoqiu, Establishment and evaluation of the model of chronic stress induced depression, Chinese Journal of Behavioral Medical Science, 2003, 12(1): 14 16), the model was established (i.e., establishing animal model of anti-depression by means of CUMS): the foot electric shock (voltage: […] (5 minutes), drying at 45° C. (5 minutes), tail nipping (1 min), wet feeding (wet mat), reversed day and night (24 hours), fasting (24 hours), water deprivation (24 hours) were randomly scheduled within 21 days, one kind of stimulations was given for each day, except for the animals of vehicle group, the others were separately caged with free diet, at the room temperature of (24±1)° C., with the relative humidity of (60±10)%. All parameters to be tested were expressed as Mean±SD (X±s), and tested by means of analysis of variance (ANOVA) in SPSS 12.0 software (purchased from SPSS Inc., USA), p<0.05 means that there was a significant difference.

[4] = tested on: rats with chronic stress induced depression model; assay: Open-field test, chronic stress induced depression; type: in vivo, SD rats; conditions: 3 mg/kg/day gavage for 21 days, 3 minutes, Hydrochloride
Protocol: as §1, with “(60±10)%. The open-field device was of 40 cm in height, 80 cm in both length and width, without cap, the inner walls and the bottom of the device are black, and the bottom was divided into 25 squares with equal area. The numbers of squares that the animals pass through were designated as the score of horizontal movement, and the numbers of standing (with the forelegs above 1 cm away from the ground) were designated as the score of vertical movement. Each animal was measured for one time, 3 minutes for each measurement.” for “(60±10)%.”

[5] = tested on: ICR mice; assay: Tail suspension test in mice, extract of Radix paeoniae alba; type: in vivo; conditions: 3.5 mg/kg/d gavage for 2 days; 1 hour after last administration; 4 min; Hydrochloride
Protocol: Each group was administered at a dosage of 0.2 ml/10 g body weight. The vehicle group was administered with deionized water by gavage once a day, for 2 days. The test was carried out at 1 hour after the last administration. The tail of mouse (2 cm away from the tip of the tail) was fixed to the connection line of 100 g tension transducer with adhesive plaster, and the mouse was hung upside down, with the head about 15 cm away from the experimental bench, the transducer was connected to the Medlab bio-signals acquisition and processing system, after 2 min of adaption, the immobility time(s) for 4 min was recorded.
The experimental data was expressed as X±s, analyzed by SPSS 13.0 statistical software by means of One-Way ANOVA test.

[6] = tested on: ICR mice; assay: Tail suspension test in mice, administration by gavage; type: in vivo; conditions: 1 h after administration, over 4 min; for Immobility Time (s): listed as paeoniflorin
Protocol: In the second day, 1 h after the administration, the tail of mouse (2 cm away from the tip of the tail) was fixed to the connection line of 100 g tension transducer by adhesive plaster, and the mouse was hung upside down, with the head about 15 cm away from the experimental bench, two animals isolated from each other by a cardboard were simultaneously tested for each time. The transducer was connected to the Medlab bio-signals acquisition and processing system, after 2 min of adaption, the result over 4 min was recorded, and the immobility situation was converted into the time(s). The experimental data were expressed as X±SD, and the analysis of variance for the experimental results was carried out by SPSS 11.5 statistical software (purchased from SPSS Inc., USA).

[7] = tested on: ICR mice; assay: Forced swimming test in mice; type: in vivo; conditions: 1 h after administration, last 4 min; for Immobility Time (s): listed as paeoniflorin
Protocol: Each group was administered by gavage at a dose of 0.2 ml/10 g weight, for two days, deionized water was administered to vehicle group.
In the second day, 1 h after the administration, the mice were placed separately into a water cylinder with 20 cm of height, 18 cm of diameter, 10 cm of depth, 23±2° C. of water temperature; observing each for 6 min, after 2 min of adaption, the immobility time over the last 4 min was recorded.
The data was expressed as x±s, analyzed by SPSS 13.0 statistical software by means of One-Way ANOVA test, the homogeneity of variance was tested by LSD and SNK test.

[8] = tested on: ICR mice; assay: Reserpine-induced hypothermia test in mice; type: in vivo; conditions: 3 mg/kg gavage 7 days, reserpine 2 mg/kg i.p., rectal temperature 4 hours after reserpine
Protocol: 50 mice were randomly divided into five groups (n=10 for each group): high-dose group (14 mg*kg^−1), medium-dose group (7 mg*kg^−1), low-dose group (3.5 mg*kg^−1) of Albiflorin; control group of paroxetine (3 mg/kg); model group of physiological saline. The gavage was carried out for 7 days. Rectal temperatures of mice were measured at 1 hour after the administration on the 8th day, then reserpine was administered by intraperitoneal injection at a dose of 2 mg/kg, rectal temperatures of mice were measured again at 4 hours after the injection of reserpine. The depth into anus of thermometer and the time for each temperature measurement of mice was coincident. The experimental data was expressed as X±SD, and the analysis of variance for the experimental results was carried out by SPSS 11.5 statistical software (purchased from SPSS Inc., USA), the experimental results were shown in Table 4.

[9] = Day 14, listed as Positice control, Hydrochloride
[10] = Day 14, listed as Prozac, Hydrochloride
[11] = Day 21, listed as Positice control, Hydrochloride
[12] = Day 21, listed as Prozac, Hydrochloride
[13] = 3.5 mg/kg/d by gavage for two days
[14] = 7 mg/kg/d by gavage for two days
[15] = 14 mg/kg/d by gavage for two days

SMILES: CNCCC(Oc1ccc(C(F)(F)F)cc1)c1ccccc1 (stereo not drawn) [Positive control, Fluoxetine Hydrochloride]
- Error times in training period [1]: 2.09 ± 1.22
- Error times in training period ([1]; listed as Prozac): significantly reduced
- Error times in testing period [1]: 0.72 ± 1.19
- Error times in testing period ([1]; listed as Prozac): significantly reduced
- comsumption of aqeous sucrose ([2]; Day 0): 12.67 ± 5.53 mL
- comsumption of aqeous sucrose ([2]; Day 7): 10.00 ± 4.24 mL
- comsumption of aqeous sucrose [2, 9]: 15.00 ± 2.22 mL
- comsumption of aqeous sucrose [2, 10]: significantly increased
- comsumption of aqeous sucrose [2, 11]: 14.91 ± 2.68 mL
- comsumption of aqeous sucrose [2, 12]: significantly increased
- body weights ([3]; Day 0): 257.19 ± 9.90 g
- body weights ([3]; Day 7): 265.90 ± 13.94 g
- body weights [3, 9]: 280.64 ± 12.32 g
- body weights [3, 10]: significantly increased
- body weights [3, 11]: 291.00 ± 11.31 g
- body weights [3, 12]: significantly increased
- Score of horizontal movement ([4]; listed as Positice control): 28.09 ± 18.55
- Score of vertical movement ([4]; listed as Positice control): 7.00 ± 3.90
- Score of horizontal movement ([4]; listed as Prozac): significantly increased
- Score of vertical movement ([4]; listed as Prozac): significantly increased
- Immobility Time [5]: significantly reduced
- Immobility Time [6, 13]: 66.21 ± 33.253 s

SMILES: C[C@@]12C[C@@]3(O)O[C@@H](O1)[C@]1(COC(=O)c4ccccc4)[C@H]3C[C@@]12O[C@@H]1O[C@H](CO)[C@@H](O)[C@H](O)[C@H]1O [Paeoniflorin]
- Immobility Time [7, 13]: 58.60 ± 32.320 s
- Immobility Time (s) [7, 13]: not significantly different from the model group
- Immobility Time [7, 14]: 43.94 ± 38.341 s
- Immobility Time (s) [7, 14]: not significantly different from the model group
- Immobility Time [7, 15]: 50.39 ± 31.257 s
- Immobility Time (s) [7, 15]: not significantly different from the model group
- Immobility Time [6, 13]: 85.62 ± 31.225 s
- Immobility Time (s) [6, 13]: not significantly different from the model group
- Immobility Time [6, 14]: 76.83 ± 36.452 s
- Immobility Time (s) [6, 14]: not significantly different from the model group
- Immobility Time [6, 15]: 81.32 ± 32.756 s
- Immobility Time (s) [6, 15]: not significantly different from the model group

SMILES: Fc1ccc([C@@H]2CCNC[C@H]2COc2ccc3c(c2)OCO3)cc1 [Paroxetine]
- Hypothermia value (° C.) [8]: 2.38 ± 0.69** ° C.
- Hypothermia value (° C.) ([8]; listed as paroxetine): significantly recede
